Source: patent publication US9109041B2, “Analog compounds of analgesic peptides derived from the venom of crotalus durissus terrificus snakes, their uses, compositions, methods of preparation and purification” (priority 2004, dated 2015)

How the values were obtained:
[1] = test system: carrageenin-induced hyperalgesia; assay: rat paw pressure test, carrageenin-induced hyperalgesia; type: in vivo
Description: The antinociceptive effect of the synthetic peptide was evaluated in the inflammatory hyperalgesia induced by carrageenin. […] Saline, administered by the same route was used as control.
As determined in the PGE2 model, the participation of opioid receptors in the antinociceptive effect of the peptide SEQ ID NO: 2 in the carrageenin-induced hyperalgesia (Table 10) was investigated. Therefore, the animals were treated with CTOP, a specific μ receptor antagonist (20 μg/paw), nor-BNI, a specific κ receptor antagonist (50 μg/paw) or with ICI 174.864, a specific δ receptor antagonist (10 μg/paw), injected by i.pl. route concomitantly to carrageenin. Peptide was administered in the dose of 1 μg/kg, orally, immediately before carrageenin.

[2] = test system: hyperalgesia induced by the Walker 256 tumor; assay: hyperalgesia induced by the Walker 256 tumor (cancer pain); type: in vivo, rat
From the text: (§1) The Walker 256 tumor cells were kindly provided by Prof. Dr. Rui Curi, of the Physiology and Biophysics Department of the Biomedical Science Institute of the University of São Paulo. The tumor-bearing animal was sacrificed and the tumoral tissue was removed, placed on a Petri dish containing 0.9% saline. Then, the tumor was cut in smaller parts, and transferred into a beaker containing saline. The material was triturated with a fine-cut, until the tumor is totally fragmented. Then, this material was filtered in gauze and the liquid collected in a beaker. All procedures were performed on ice. The material of the beaker was transferred to 50 ml plastic tubes and centrifuged at 4° C., for 10 minutes, at 1200 rpm. After centrifugation, the supernatant was rejected and the precipitate resuspended in saline 0.9%. For cell counts, the suspension of cells was diluted (1:100) in saline. An aliquot (200 μl) was removed and placed in a test tube containing 200 μl of 1% Trypan blue. The cell number was determined in optical microscope using Neubauer's chamber. The cellular viability was determined considering viable the light-refracting cells.
(§2) After determining the number of cells, 1 ml of the suspension, containing 1×10^7 cells, was injected by intraperitoneal route, on the right side of the rats to obtain liquid tumor (ascites).
(§3) Five days after injection, the rats with ascites were sacrificed and the ascetic fluid collected from the peritoneal cavity and placed in a test tube containing EDTA. The liquid was diluted 100 times with phosphate-buffered saline (PBS), pH 7.4. The cell count was done after dilution with Trypan blue, as described above. Tumor cell count was ascertained to 1×10^6 cells in 100 μl, by dilution with PBS. This number of cells was determined in preliminary tests for induction of cancer pain in rats. In this final cell number adjustment, the volume of antibiotic (Benzetacil®) added to the suspension (150,000 units of antibiotic/10 ml of suspension), was taken into consideration. The antibiotic was used in order to avoid microbial contamination. The cells were injected by intraplantar route into one of the rat hind paws. Control animals were injected with PBS into the contralateral paw, in the same experimental conditions.
(§4) Hyperalgesia, allodynia and spontaneous pain were determined before (BM-basal measurement) and 5 days after tumor cell injection, before (IM-initial measurement) and 2 hours after (FM-Final measurement) peptide administration.
(§5) The results were analyzed comparing the mean values of the basal and initial measurements, or of the initial and final measurements or, when determined, by comparing the mean values obtained in the different experimental groups (Tables 17, 18, 19).
(§6) For this purpose, the animals were treated with CTOP, a specific μ receptor antagonist (20 μg/paw), nor-BNI, a specific κ receptor antagonist (50 μg/paw) or with ICI 174,864, a specific δ receptor antagonist (10 μg/paw). The antagonists were injected by intraplantar route. The peptide was administered in the dose of 6 μg/kg, orally, immediately before the injection of the opioid antagonists. The results were analyzed comparing the mean values of the basal and initial measurements, or of the initial and final measurements or, when determined, by comparing the mean values obtained in the different experimental groups ( Table 20).

[3] = test system: allodynia induced by the Walker 256 tumor; assay: allodynia induced by the Walker 256 tumor (cancer pain); type: in vivo, rat
From the text: as §1, §2, §3, §4, §5, §6

[4] = saline + antagonist alone i.pl. (CTOP 20, nor-BNI 50, ICI 174.864 10 μg/paw), before carrageenin
[5] = saline + antagonist alone i.pl. with carrageenin (CTOP 20, nor-BNI 50, ICI 174.864 10 μg/paw), after carrageenin
[6] = saline + antagonist alone i.pl. (ICI 10, nor-BNI 50, CTOP 20 μg/paw), 5th day, 2 hours after treatment
[7] = saline + antagonist alone i.pl. (ICI 10, nor-BNI 50, CTOP 20 μg/paw), 5th day, before treatment
[8] = saline + antagonist alone i.pl. (ICI 10, nor-BNI 50, CTOP 20 μg/paw), before injection of the tumor
[9] = 6 μg/kg p.o. + CTOP 20 μg/paw i.pl., 5th day, 2 hours after peptide
[10] = 6 μg/kg p.o. + CTOP 20 μg/paw i.pl., 5th day, before peptide
[11] = 6 μg/kg p.o. + CTOP 20 μg/paw i.pl., before injection of the tumor
[12] = 6 μg/kg p.o. + ICI 174,864 10 μg/paw i.pl., 5th day, 2 hours after peptide
[13] = 6 μg/kg p.o. + ICI 174,864 10 μg/paw i.pl., 5th day, before peptide
[14] = 6 μg/kg p.o. + ICI 174,864 10 μg/paw i.pl., before injection of the tumor
[15] = 6 μg/kg p.o. + nor-BNI 50 μg/paw i.pl., 5th day, 2 hours after peptide
[16] = 6 μg/kg p.o. + nor-BNI 50 μg/paw i.pl., 5th day, before peptide
[17] = 6 μg/kg p.o. + nor-BNI 50 μg/paw i.pl., before injection of the tumor
[18] = peptide 6 μg/kg p.o., CTOP 20 μg/paw i.pl.
[19] = peptide 6 μg/kg p.o., ICI 174,864 10 μg/paw i.pl.
[20] = peptide 6 μg/kg p.o., nor-BNI 50 μg/paw i.pl.

Oc1ccc2c3c1O[C@H]1c4[nH]c5c(c4C[C@@]4(O)[C@@H](C2)N(CC2CC2)CC[C@]314)C[C@@]1(O)[C@H]2Cc3ccc(O)c4c3[C@@]1(CCN2CC1CC1)[C@H]5O4 [nor-BNI, nor-Binalthorphimine, reference compound]
pain threshold, IM (g) ± S.E.M. [1, 4]: 72 ± 1.12 g | pain threshold, FM (g) ± S.E.M [1, 5]: 52 ± 2.79 g | pain threshold, FM [2, 6]: 32 ± 1.66 g | pain threshold, IM [2, 7]: 33 ± 3.33 g | pain threshold, BM [2, 8]: 70 ± 2.88 g | paw withdrawal threshold (allodynia), FM [3, 6]: 4.41 ± 0.00 log 10 (mg × 10) | paw withdrawal threshold (allodynia), IM [3, 7]: 4.41 ± 0.00 log 10 (mg × 10) | paw withdrawal threshold (allodynia), BM [3, 8]: 4.97 ± 0.00 log 10 (mg × 10)

CTOP [reference compound]
pain threshold, IM (g) ± S.E.M. [1, 4]: 73 ± 1.25 g | pain threshold, FM (g) ± S.E.M [1, 5]: 49 ± 1.25 g | pain threshold, FM [2, 6]: 32 ± 1.66 g | pain threshold, IM [2, 7]: 35 ± 2.88 g | pain threshold, BM [2, 8]: 68 ± 1.66 g | paw withdrawal threshold (allodynia), FM [3, 6]: 4.41 ± 0.00 log 10 (mg × 10) | paw withdrawal threshold (allodynia), IM [3, 7]: 4.41 ± 0.00 log 10 (mg × 10) | paw withdrawal threshold (allodynia), BM [3, 8]: 4.97 ± 0.00 log 10 (mg × 10)

Xaa-Phe-Ser-Pro-Glu-Asn-Cys-Gln-Gly-Glu-Ser-Gln-Pro-Cys [SEQ ID NO: 2]
pain threshold, FM (g) ± S.E.M ([1]; 1 μg/kg p.o. + CTOP 20 μg/paw i.pl. with carrageenin, after carrageenin): 126 ± 2.92 g | pain threshold, IM (g) ± S.E.M. ([1]; 1 μg/kg p.o. + CTOP 20 μg/paw i.pl., before carrageenin): 76 ± 1.87 g | pain threshold, FM (g) ± S.E.M ([1]; 1 μg/kg p.o. + ICI174,864 10 μg/paw i.pl. with carrageenin, after carrageenin): 128 ± 2.00 g | pain threshold, IM (g) ± S.E.M. ([1]; 1 μg/kg p.o. + ICI174,864 10 μg/paw i.pl., before carrageenin): 77 ± 1.22 g | pain threshold, FM (g) ± S.E.M ([1]; 1 μg/kg p.o. + nor-BNI 50 μg/paw i.pl. with carrageenin, after carrageenin): 56 ± 1.00 g | pain threshold, IM (g) ± S.E.M. ([1]; 1 μg/kg p.o. + nor-BNI 50 μg/paw i.pl., before carrageenin): 78 ± 2.00 g | pain threshold, FM (g) ± S.E.M ([1]; 1 μg/kg p.o., 3 h after carrageenin 200 μg/paw (Table 9)): 116 ± 1.87 g | pain threshold, FM (g) ± S.E.M ([1]; 1 μg/kg p.o., after carrageenin (Table 10)): 129 ± 1.87 g | pain threshold, IM (g) ± S.E.M. ([1]; 1 μg/kg p.o., before carrageenin (Table 9)): 77 ± 2.00 g | pain threshold, IM (g) ± S.E.M. ([1]; 1 μg/kg p.o., before carrageenin (Table 10)): 77 ± 1.22 g | opioid receptor antagonist interfering with the antinociceptive effect ([1]; peptide 1 μg/kg p.o., mu, kappa, delta antagonists i.pl.): only kappa opioid receptor antagonist was able to interfere | pain threshold, FM [2, 9]: 72 ± 2.81 g | pain threshold, IM [2, 10]: 37 ± 2.81 g | pain threshold, BM [2, 11]: 70 ± 1.29 g | pain threshold, FM [2, 12]: 52 ± 1.22 g | pain threshold, IM [2, 13]: 33 ± 3.39 g | pain threshold, BM [2, 14]: 67 ± 1.22 g | pain threshold, FM [2, 15]: 32 ± 1.05 g | pain threshold, IM [2, 16]: 32 ± 2.14 g | pain threshold, BM [2, 17]: 69 ± 1.53 g | pain threshold, FM ([2]; 6 μg/kg p.o., 5th day after tumor implantation, 2 hours after peptide (Table 17)): 76 ± 2.29 g | pain threshold, IM ([2]; 6 μg/kg p.o., 5th day after tumor implantation, before peptide (Table 17)): 27 ± 1.01 g | pain threshold, FM ([2]; 6 μg/kg p.o., 5th day, 2 hours after peptide (Table 20)): 75 ± 2.88 g | pain threshold, IM ([2]; 6 μg/kg p.o., 5th day, before peptide (Table 20)): 36 ± 2.39 g | pain threshold, BM ([2]; 6 μg/kg p.o., before injection of the tumor (Table 17)): 69 ± 1.30 g | pain threshold, BM ([2]; 6 μg/kg p.o., before injection of the tumor (Table 20)): 71 ± 1.25 g | effect of the mu opioid receptor antagonist on the anti-hyperalgesic effect of the peptide [2, 18]: did not alter | effect of the delta opioid receptor antagonist on the anti-hyperalgesic effect of the peptide [2, 19]: partially inhibited | effect of the kappa opioid receptor antagonist on the anti-hyperalgesic effect of the peptide [2, 20]: blocked | paw withdrawal threshold (allodynia), FM [3, 9]: 4.98 ± 0.03 log 10 (mg × 10) | paw withdrawal threshold (allodynia), IM [3, 10]: 4.41 ± 0.00 log 10 (mg × 10) | paw withdrawal threshold (allodynia), BM [3, 11]: 5.03 ± 0.02 log 10 (mg × 10) | paw withdrawal threshold (allodynia), FM [3, 12]: 4.56 ± 0.03 log 10 (mg × 10) | paw withdrawal threshold (allodynia), IM [3, 13]: 4.41 ± 0.00 log 10 (mg × 10) | paw withdrawal threshold (allodynia), BM [3, 14]: 4.99 ± 0.02 log 10 (mg × 10) | paw withdrawal threshold (allodynia), FM [3, 15]: 4.41 ± 0.00 log 10 (mg × 10) | paw withdrawal threshold (allodynia), IM [3, 16]: 4.41 ± 0.00 log 10 (mg × 10) | paw withdrawal threshold (allodynia), BM [3, 17]: 4.97 ± 0.00 log 10 (mg × 10) | paw withdrawal threshold (allodynia), FM ([3]; 6 μg/kg p.o., 5th day after tumor implantation, 2 hours after peptide (Table 18)): 4.97 ± 0.00 log 10 (mg × 10) | paw withdrawal threshold (allodynia), IM ([3]; 6 μg/kg p.o., 5th day after tumor implantation, before peptide (Table 18)): 4.41 ± 0.00 log 10 (mg × 10) | paw withdrawal threshold (allodynia), FM ([3]; 6 μg/kg p.o., 5th day, 2 hours after peptide (Table 21)): 4.97 ± 0.00 log 10 (mg × 10) | paw withdrawal threshold (allodynia), IM ([3]; 6 μg/kg p.o., 5th day, before peptide (Table 21)): 4.41 ± 0.00 log 10 (mg × 10) | paw withdrawal threshold (allodynia), BM ([3]; 6 μg/kg p.o., before injection of the tumor (Table 18)): 4.97 ± 0.00 log 10 (mg × 10) | paw withdrawal threshold (allodynia), BM ([3]; 6 μg/kg p.o., before injection of the tumor (Table 21)): 4.97 ± 0.00 log 10 (mg × 10) | effect of the mu opioid receptor antagonist on the anti-allodynic effect of the peptide [3, 18]: did not alter | effect of the delta opioid receptor antagonist on the anti-allodynic effect of the peptide [3, 19]: partially inhibited | effect of the kappa opioid receptor antagonist on the anti-allodynic effect of the peptide [3, 20]: blocked
